The text below walks through data of US6387395B1, “N-[1, (1-1) -dialkyloxy] - and N- [1, (1-1) -dialkenyloxy]- alk-1-yl-N,N,N-tetrasubstituted ammonium lipids and uses therefor” (priority 1985, dated 2002).

pIC50: −log10 of the molar value.

One series concerns Vero cells. The series is described as follows: Protein synthesis ([3H]leucine) in cells treated with DOTMA liposomes / 2-5A analog. The class given is cell-based. Conditions: 6 hours incubation, alone (no DOTMA); 2-5A analog at 10^−6 M. An excerpt:
Oligoadenylates of the general structure ppp(A2′p)nA, n≧2, are referred to as “2-5A”. 2-5A molecules are well known, to those skilled in the art, to bind to an intracellular endonuclease resulting in activation of the endonuclease with subsequent cleavage of ribosomal and messenger RNA, resulting in inhibition of protein synthesis. […] A calcium phosphate coprecipitation technique can be employed to artificially introduce 2-5A into cells, which can be monitored by inhibition of protein synthesis. […] The solutions were then removed by aspiration, the cells were labelled for 90 minutes with [^3H] leucine (1 μCi/0.5 ml/well), and the trichloroacetic acid (TCA)-precipitable radioactivity was determined after incubating 30 minutes with cold 10% TCA, washing, harvesting the cells with 0.1 M NaOH, neutralizing with HCl, and quantitating the radioactivity by liquid scintillation counting. […] However, the calcium phosphate treatment was very toxic to the cells, as determined from their morphology as well as approximately up to 40% reduction in protein synthesis of the cells receiving only the calcium phosphate treatment but no 2-5A.
Cells were incubated and protein synthesis was determined as described above except that the 60 mM CaCl2 was not included. […] In another test, cells were incubated with samples for 2, 6, or 18 hours and protein synthesis was determined as described above.

Series [1] can be described thus: Solubility of drug in phosphate buffered saline. The series is classed as physicochemical. The protocol: For example, 1-[4-(4-chlorophenyl)-2-(2,6-dichlorophenylthio)-n-butyl] imidazole nitrate without the presence of any of the compounds of this invention is insoluble in aqueous buffer (phosphate buffered saline, pH 7.4).
A 0.3% soluble preparation of the above drug was prepared using the following method:
18 mg of 1-[4-(4-chlorophenyl)-2-(2,6-dichlorophenylthio)-n-butyl] imidazole nitrate and 482 mg of N-(2,3-di-(9-(Z)-octadecenyloxy)-prop-1-yl-N,N,N-trimethylammonium chloride were dissolved in methylene dichloride. The methylene dichloride was evaporated under a stream of nitrogen and the dried film placed under vacuum overnight. The dried film was suspended in 6 ml phosphate buffered saline, pH 7.4, and sonicated to clarity.

A further series concerns JZ.1 cells. The series is described as follows: Transient transfection with pSV2CAT, CAT activity. The series is classed as cell-based, rat. The protocol: (§1) (a) Formation of the lipid-DNA complexBoth DNA and lipid are diluted to 1.5 ml each with HBS (150 mM NaCl, 20 mM Hepes pH 7.4) and then mixed. The DNA lipid complexes form immediately. A typical transfection would use 1 to 10 μg DNA and 100 μg of total lipid (DOTMA:PE, 1:1).
(§2) (b) Treatment of cells—Just confluent 100 mm tissue culture plates of cells are washed 2× with 5 ml of HBS and 3 ml of the DNA-lipid solution is added. The cells are incubated for 3-5 hours at 37° and then 10 ml of DMEM+10% fcs is added. After incubation for 16 hours at 37° the medium is replaced with 10 ml fresh medium and cells are harvested by scraping 2-3 days later. Cell extracts were prepared and CAT assays performed as previously described. For stable transfections 50% confluent cells were treated as above except that 2 days after transfection cells were passaged and grown in selective medium for either neomycin resistance (0.4 mg/ml G418) or E. coli XGPRT expression.
(§3) Cells were transfected with calcium phosphate precipitated DNA as described with the addition of a glycerol shock. Similarly cells were transfected with the DEAE-dextran method as described.

Another series has as its system CV-1 cells. Nature of the series: Transient transfection with pSV2CAT, CAT activity. Particulars: CV-1 and COS 7 cells. The series is classed as cell-based, monkey. Here is the method:
as §1, §2, §3
Cells transfected with the plasmid pSV2CAT express CAT enzyme activity that can be measured in cell extracts 2 days after transfection. […]

Series [2] concerns mouse L-cells. The series is described as follows: DNA transfection of mouse L-cells. The class given is cell-based. The protocol: as §1
as §2, with “The cells are incubated for 3-5 hours at 37° and then 10 ml of DMEM+10% fcs is added.” left out

Series [3] can be described thus: DNA-lipid complex formation on sucrose density gradient. The series is classed as physicochemical. Particulars: lipid mixed with DNA at a ratio of 5:1 (wt:wt), gentle mixing. An excerpt:
DNA interacts spontaneously with solutions of DOTMA to form lipid-DNA complexes. This complex formation is due presumably to ionic interactions between the positively charged group on the DOTMA molecule and the negatively charged phosphate groups on the DNA. Complex formation was examined using a sucrose density gradient (not shown). In the absence of lipid, DNA migrated to the bottom of the gradient while lipid, in the absence of DNA, floated at the top. When lipid was mixed with DNA at a ratio of 5:1 (wt:wt) all the DNA migrated with the lipid. The association of 100% of the DNA with DOTMA after gentle mixing contrasts with conventional liposome encapsulation procedures which usually entrap less than 10% of the DNA, require an additional purification step to remove unencapsulated DNA or involve potentially destructive conditions such as vigorous agitation or sonication.

For series [4], the system named is mouse L-cells. Nature of the series: Cytotoxicity of dsRNA introduced into cells (trypan blue viability). The series is classed as cell-based. The text has this: Interferon treatment of various cells including both mouse and human cells results in induction of an enzyme, 2-5A synthetase, which when activated by double stranded RNA produces 2-5A. 2-5A is a polymer of ATP that contains unique 2′-5′ linkages rather than the standard 3′-5′ linkages. 2-5A is effectively a communication molecule which activates a latent 2′-5′ endonuclease resulting in degradation of cellular mRNA. […] In the presence of double stranded RNA, 2-5A is produced and can be produced in sufficient concentrations to degrade the majority of the cellular RNA, including ribosomal RNA, resulting in cell death. In this respect, this system can be used as cytotoxic assay to analyze the capacity of a compound to introduce double stranded RNA into the cytoplasm of a cell. The double stranded RNA commonly used is poly IC, a commercially available compound which is used experimentally and classically to induce interferon by methods well known to those familiar in the art. Poly IC will not penetrate cells and cause cytotoxic effects alone, but requires a vehicle to help carry it across the cell membrane. The most common agent used for this purpose is DEAE dextran in experimental cell culture systems and a complex of carboxymethyl cellulose and polylysine in clinical use. […]

The next series deals with Vero or L929 cells. Nature of the series: Inhibition of protein synthesis ([3H]leucine) by 2-5A, calcium phosphate coprecipitation. The series is classed as cell-based. The text has this: Oligoadenylates of the general structure ppp(A2′p)nA, n≧2, are referred to as “2-5A”. 2-5A molecules are well known, to those skilled in the art, to bind to an intracellular endonuclease resulting in activation of the endonuclease with subsequent cleavage of ribosomal and messenger RNA, resulting in inhibition of protein synthesis. […] A calcium phosphate coprecipitation technique can be employed to artificially introduce 2-5A into cells, which can be monitored by inhibition of protein synthesis. Thus 10^−5 to 10^−9 M 2-5A was added to a solution of 120 mM CaCl2, which was then added dropwise into bubbled Hepes buffered saline, pH 7.05 (8.0 g NaCl, 0.37 g KCl, 0.125 g Na2HPO4″2H2O, 1.0 g glucose, and 5.0 g Hepes per liter). A final sample volume of 0.5 ml was added to quadruplicate wells of Costar 24 well plates containing confluent Vero or L929 cells. After 45 minutes at room temperature, an additional 0.5 ml of media was added to each well and incubated an additional 90 minutes at 37° C. The solutions were then removed by aspiration, the cells were labelled for 90 minutes with [^3H] leucine (1 μCi/0.5 ml/well), and the trichloroacetic acid (TCA)-precipitable radioactivity was determined after incubating 30 minutes with cold 10% TCA, washing, harvesting the cells with 0.1 M NaOH, neutralizing with HCl, and quantitating the radioactivity by liquid scintillation counting. […] 50%-maximal inhibition occurred at approximately 10^−9 M 2-5A. However, the calcium phosphate treatment was very toxic to the cells, as determined from their morphology as well as approximately up to 40% reduction in protein synthesis of the cells receiving only the calcium phosphate treatment but no 2-5A.

In a further series the test system is L-TK cells. Nature of the series: Stable transfection frequency (drug resistant colonies). The series is classed as cell-based, murine. Conditions: pSV2neo 1 μg with 10 μg carrier DNA. The protocol: (§4) (b) Treatment of cells—Just confluent 100 mm tissue culture plates of cells are washed 2× with 5 ml of HBS and 3 ml of the DNA-lipid solution is added. The cells are incubated for 3-5 hours at 37° and then 10 ml of DMEM+10% fcs is added. After incubation for 16 hours at 37° the medium is replaced with 10 ml fresh medium and cells are harvested by scraping 2-3 days later. Cell extracts were prepared and CAT assays performed as previously described.
as §3

The test system of a further series is TA1 cells. The series is described as above. The class given is cell-based, murine. Here is the method: as §4, §3
Another series concerns Ψ2 cells. Described as above. The series is classed as cell-based, murine. The protocol: as §4, §3
For the next series, the system named is MSN610.2 cells. Described as above. The series is classed as cell-based, rat. Particulars: MSN610.2, pSV2neo 1 μg with 10 μg carrier DNA. The protocol: as §4, §3

For the compound “5′-triphosphophoryladenylyl-(2′→5′)adenylyl-(2′→5′)adenylyl-(2′→6′)(3′-aza-N-hexyl-1′,2′,3′,4′-tetradeo xyhexopyranos-1′-yl)adenine [2-5A analog]”, in the series on Vero cells, the “% of protein synthesis of untreated cells” value is given as 82±14%.

In the case of `Clc1ccc(CCC(Cn2ccnc2)Sc2c(Cl)cccc2Cl)cc1.O=[N+]([O-])O` (stereo not shown) [1-[4-(4-chlorophenyl)-2-(2,6-dichlorophenylthio)-n-butyl] imidazole nitrate], the “soluble preparation of drug” value in series [1] (18 mg drug with 482 mg DOTMA in 6 ml phosphate buffered saline pH 7.4, sonicated to clarity) stood at 0.3%. Further, the “solubility in aqueous buffer” value in series [1] (phosphate buffered saline, pH 7.4, without compounds of the invention) is on record as “insoluble”.

Take `CCCCCCCC/C=C\CCCCCCCCOCC(C[N+](C)(C)C)OCCCCCCCC/C=C\CCCCCCCC.[Cl-]` (stereo not shown) [DOTMA, N-(2,3-di(9-(Z)-octadecenyloxy))-prop-1-yl-N,N,N-trimethylammonium chloride]: the “fold enhancement over the DEAE-dextran procedure” value in the series on JZ.1 cells is given as not below 80 fold. The “fold increase in CAT activity relative to transient transfection with DEAE-dextran” value in the series with CV-1 cells is 6-11 fold. Besides, the “CAT activity (% of control)” value with mouse L-cells [2] (serum present from the outset) is listed as “less than 5%”. Besides, the “DNA associated with lipid” value in series [3] is reported as 100%.

Regarding `CCCCCCCCCCCCCCCCCC[N+](C)(C)CCCCCCCCCCCCCCCCCC.[Br-]` [dioctadecyl dimethyl ammonium bromide], the “efficacy as mediators of DNA transfection” value in the series on mouse L-cells [2] is reported as “little efficacy”.

On to `CCCCCCCCCCCCCCCCCCN` [stearylamine], for which, in the series with mouse L-cells [2], the “efficacy as mediators of DNA transfection” value was “little efficacy”.

For the compound Poly IC, in the series on mouse L-cells [4] (1 million cells, 24 hrs treatment, trypan blue), the “Cell Survival” value is 100%. Also, the “frequency of surviving cells” value in the series on mouse L-cells [4] (poly IC introduced by the DOTMA lipid) is recorded as 1×10^−6.

As to calcium phosphate, in the series on Vero or L929 cells (calcium phosphate treatment only, no 2-5A), the “reduction in protein synthesis” value is “up to 40%”. Moreover, in the series on Vero cells, the “% of protein synthesis of untreated cells” value came to 64±3%. Further, the “Frequency × 10^5” value in the series with L-TK cells came to 3; in the series with TA1 cells (TA1, pMSGC5a 7 μg), 1.3; in the series on TA1 cells (TA1, pSV2neo 1 μg with 10 μg carrier DNA) it was 2; in the series on TA1 cells (TA1, pZIPSVX 7 μg) it was 0.7; with Ψ2 cells (Ψ2, pZIPC5a 7 μg) it was 1.8; with Ψ2 cells (Ψ2, pZIPSVX 7 μg) it was 0.6. In the series with MSN610.2 cells, the “Frequency × 10^5” value amounted to 1.3.

In the case of ppp(A2′p)2A, the pIC50 with Vero or L929 cells (after the calcium-phosphate precipitation technique, read-out: 50%-maximal inhibition of protein synthesis) is approximately 9.00. Further, in the series with Vero or L929 cells (all concentrations, without calcium phosphate coprecipitation), the “inhibition of protein synthesis” value is given as “no inhibition of protein synthesis”.
